# Test results from patent US20250144187A1, “COMBINATION OF HYDROLASES AND ANTI-MICROORGANISM DRUGS AND USES THEREOF” (CENTRE FOR EYE AND VISION RESEARCH LIMITED, priority 2023, published 2025).
# Key:
# [1] = test system: MRSE; assay: High-throughput screening of 4989 compounds with human lysozyme; format: cell-based, Staphylococcus epidermis; conditions: for MRSE Inhibition ratio (%): compound 2.5 μM + 1 mg/ml lysozyme relative to compound only
# [2] = test system: MRSA; assay: ATP, NADH and pyruvate levels, cefdinir/lysozyme; format: cell-based, Staphylococcus aureus; conditions: 1 hour
# Method: 12) ATP, NADH and pyruvate levels. According to the described method [Liu Y et al., Adv Sci 7, 1902227 (2020)], mid-log-phase MRSA with an OD600 of 0.4 to 0.6 was treated with lysozyme, cefdinir or their combination at different concentrations. Those without any treatment served as control group. After 1 hour incubation at 37° C. bacteria with similar load (according to OD600, 1 ml bacteria were collected if the OD600 was 1) were collected, washed by cold PBS for 3 times. […] Here, 20 μl of each supernatant were added each well of white 96-well plate, in which each well had been pre-reactivated by 100 μl of ATP test solution (Beyotime. Co. Ltd, China), followed by luminometer measurement. To analyze the NAD^+/NADH ratio [Xue C et al., Front Pharmacol 12, 6000296 (2021)], half of lysis supernatants were frozen at −20° C. immediately and the rest half were firstly heated at 60° C. for 30 minutes in PCR machine to decompose NAD^+ if had, Next, these heated supernatants were further centrifuged at 18,000 g at 4° C. for 20 minutes to collect their supernatants. […] After 30 minutes incubation in the prevention of light, orange formazan was observed and then the absorbance at 450 nm was recorded. […] By recording the absorbance at 520 nm, the pyruvate level in each sample was figured out according to the standard formula. […]
# [3] = test system: MRSA; assay: High-throughput screening of 1953 FDA-approved compounds with human lysozyme; format: cell-based, Staphylococcus aureus; conditions: compound 25 μM + 1 mg/ml lysozyme, 24-hour
# Method: 1) High-throughput screening. According to standard screening method [Zhong. […] Commun. 11, 523 (2020)], 1953 FDA-approved compounds from our drugs library at a fixed concentrations of 25 μM were screened against methicillin-resistant Staphylococcus aureus (MRSA) and Staphylococcus epidermis (a coagulase negative Staphylococci, MRSE), in combination with human lysozyme. Specifically, these compounds were added into bacterial suspensions (1×10^5 CFU/ml, in LB medium) in the absence or presence of 1 mg/ml lysozyme. LB medium without bacteria served as background group. Then, the real-time growth curvet of MRSA were monitored per hour and for 24 hours. Absorbance at 600 am (OD600) of bacterial culture at the time point of 24-hour was also measured. The inhibition ratio (%) was calculated as (ODcontrol−ODsample)/(ODcontrol−ODbackground)×100%. […] Herein, the relative and apparent inhibition ratios indicated the combination effect and potential toxicity of compound, respectively. Synergy effect was defined as the relative inhibition ratio of ≥90%. All assays were performed in triplicate.
# [4] = test system: MRSA; assay: Time-killing curves, tedizolid phosphate/lysozyme; format: cell-based, Staphylococcus aureus; conditions: tedizolid phosphate + 0.5 mg/ml lysozyme, after 22 hours; dropping from the level of 10^12
# Method: 3) Time-killing curves. According to standard method [Sun. H et al., Nat. Commun. 11, 5263 (2020); Thappeta, K. R. V., Vikke. Y. S., Yong. A. M. H., Chan-Park. M. B. Kline, K. A. Combined efficacy of an antimicrobial cationic peptide polymer with conventional antibiotics to combat multidrug-resistant pathogens. ACS Infect. Dis. 6, 1229-1237 (2020)], over-night cultured MRSA was diluted and aliquoted into new sterile 50 ml tubes at 1:1000 ratio. Then, the bacterial suspension was co-cultured with 0.25 or 0.5 μg/ml tedizolid phosphate, 0.5 mg/ml lysozyme or their combination at 37° C. with shaking at 50 rpm. Similar bacterial suspension without any additions served as control group. To measure their real bacterial loads to draw their kinetic time-killing curves, 20 μl of each culture was extracted at time intervals of 0, 1, 3, 6, 9, 12 and 22 hours, and then 10 μl of each sample (10-fold serial dilution) was applied onto LB-agar plate and incubated at 37° C. for 24 hours. All assays were performed in triplicate.
Structure (SMILES),"MRSE Combination ([1]; OD600 at 24-hour, compound 2.5 μM + 1 mg/ml lysozyme)","MRSE Drug only ([1]; OD600 at 24-hour, compound 2.5 μM without lysozyme)",MRSE Inhibition ratio (%) [1],MRSE Inhibition ratio (%) ([1]; listed as Ce ? dinir),increasing ATP level ([2]; cefdinir (0.5 μg/ml) + lysozyme (0.5 mg/ml)) [fold],increase in the ratio of NAD+/NADH ([2]; cefdinir treatment) [fold],"Growth inhibition ratio (mean ± SD, %) MRSA [3] [%]",bacterial load per ml culture [4]
"C=CC1=C(C(=O)O)N2C(=O)[C@@H](NC(=O)/C(=N\O)c3csc(N)n3)[C@H]2SC1 [cefdinir, Cefdinir]",0.0528,0.6206,above 90%,99.68,1.5,1.3,85.21 ± 9.84,
"Cn1nnc(-c2ccc(-c3ccc(N4C[C@H](COP(=O)(O)O)OC4=O)cc3F)cn2)n1 [tedizolid phosphate, Tedizolid Phosphate]",,,,,,,,10^6 colony forming units (CFUs)
